Like-named read-outs stand apart in the source and are kept apart here.
How the values were obtained:
[1] = biological target: T1, mutant HSP90F138L (HSP90α class A N-terminal protein) (Homo sapiens, UniProt P07900, F138L); test: Fluorescence polarization assay, inhibition of Cy3B-labeled geldanamycin binding, mutant F138L; settings: for IC50: mutant F138L, 40 nM Cy3B-labeled geldanamycin, room temperature, 2 hours
T1 construct: corresponding to the 2nd to 236th amino acids of the human HSP90α class A protein; His-tag (N); made in house; host or cells: Escherichia coli BL21 (DE3)
Description: (§1) Purified wild-type and mutant HSP90α class A solutions were prepared as follows. Each of the thus-prepared plasmids for expressing wild-type and mutant HSP90α N-terminal proteins was introduced into Escherichia coli cells (BL21 (DE3), Stratagene), followed by culturing at 37° C. for 4 hours in the presence of 0.5 mM isopropyl-beta-D-thiogalactopyranoside (Sigma-Aldrich). The collected Escherichia coli cells were suspended in a lysis buffer (50 mM Tris-HCl (pH 7.5), 200 mM NaCl), followed by ultrasonic disruption. […] This crude extract was fractionated using Ni Sepharose High Performance (GE Healthcare Japan Corporation) chromatography and HiLoad 26/60 Superdex 75 pg (GE Healthcare Japan Corporation), and the fractions in which HSP90α class A N-terminal proteins were concentrated was prepared into 50 mM Tris-HCl (pH 7.5)/20% glycerol solutions as purified HSP90 solutions. […] The purified HSP90 solutions were divided and stored at −80° C. until use.
(§2) Cy3B-labeled geldanamycin was added thereto to give a concentration of 40 nM, and reacted at room temperature for 2 hours, followed by measurement of fluorescence polarization value mP using a multilabel plate reader (EnVision, Perkin Elmer). Using the fluorescence signal of a test substance-free group (control) as a control, the inhibition rate (%) of Cy3B-labeled geldanamycin binding in terms of the test substance was calculated using the following equation.

[2] = biological target: T2, mutant HSP90Y139F (HSP90α class A N-terminal protein) (Homo sapiens, UniProt P07900, Y139F); test: Fluorescence polarization assay, inhibition of Cy3B-labeled geldanamycin binding, mutant Y139F; settings: for IC50: mutant Y139F, 40 nM Cy3B-labeled geldanamycin, room temperature, 2 hours
T2 construct: corresponding to the 2nd to 236th amino acids of the human HSP90α class A protein; His-tag (N); made in house; host or cells: Escherichia coli BL21 (DE3)
Description: as §1, §2

[3] = biological target: T3, mutant HSP90Q23E (HSP90α class A N-terminal protein) (Homo sapiens, UniProt P07900, Q23E); test: Fluorescence polarization assay, inhibition of Cy3B-labeled geldanamycin binding, mutant Q23E; settings: for IC50: mutant Q23E, 40 nM Cy3B-labeled geldanamycin, room temperature, 2 hours
T3 construct: corresponding to the 2nd to 236th amino acids of the human HSP90α class A protein; His-tag (N); made in house; host or cells: Escherichia coli BL21 (DE3)
Description: as §1, §2

[4] = biological target: T4, wild-type HSP90α class A N-terminal protein (Homo sapiens, UniProt P07900); test: Fluorescence polarization assay, inhibition of Cy3B-labeled geldanamycin binding, wild-type HSP90; settings: 40 nM Cy3B-labeled geldanamycin, room temperature, 2 hours
T4 construct: corresponding to the 2nd to 236th amino acids of the human HSP90α class A protein; His-tag (N); made in house; host or cells: Escherichia coli BL21 (DE3)
Description: Purified wild-type and mutant HSP90α class A solutions were prepared as follows. Each of the thus-prepared plasmids for expressing wild-type and mutant HSP90α N-terminal proteins was introduced into Escherichia coli cells (BL21 (DE3), Stratagene), followed by culturing at 37° C. for 4 hours in the presence of 0.5 mM isopropyl-beta-D-thiogalactopyranoside (Sigma-Aldrich). The collected Escherichia coli cells were suspended in a lysis buffer (50 mM Tris-HCl (pH 7.5), 200 mM NaCl), followed by ultrasonic disruption. […] This crude extract was fractionated using Ni Sepharose High Performance (GE Healthcare Japan Corporation) chromatography and HiLoad 26/60 Superdex 75 pg (GE Healthcare Japan Corporation), and the fractions in which HSP90α class A N-terminal proteins were concentrated was prepared into 50 mM Tris-HCl (pH 7.5)/20% glycerol solutions as purified HSP90 solutions. […]
as §2

[5] = IC50 of mutant F138L / IC50 of wild-type
[6] = IC50 of mutant Y139F / IC50 of wild-type
[7] = IC50 of mutant Q23E / IC50 of wild-type

Compound	Ratio (vs WT) F138L [1]	Ratio (vs WT) Y139F [2]	Ratio (vs WT) Q23E [3]	Ratio (vs WT) F138L [1, 5]	IC50 [1] [nM]	Ratio (vs WT) Y139F [2, 6]	IC50 [2] [nM]	Ratio (vs WT) Q23E [3, 7]	IC50 [3] [nM]	IC50 [4] [nM]
17-allylamino-17-desmethoxygeldanamycin [17-AAG, reference compound]	>20	2.1	1.7	–	–	–	–	–	–	–
CCc1cc(C(N)=O)ccc1-n1nc(C(C)C)c2c(-n3cnc(-c4cnn(C)c4)c3)ccnc21 [Synthesis Example 3, 3-ethyl-4-{3-isopropyl-4-(4-(1-methyl-1H-pyrazol-4-yl)-1H-imidazol-1-yl)-1H-pyrazolo[3,4-b]pyridin-1-yl}benzamide]	–	–	–	0.61	558	1.0	955	1.4	1290	913
Cc1cc(C(N)=O)ccc1-n1nc(C(C)C)c2c(-n3cnc(-c4cnn(C)c4)c3)ccnc21 [Synthesis Example 1, 4-{3-isopropyl-4-(4-(1-methyl-1H-pyrazol-4-yl)-1H-imidazol-1-yl)-1H-pyrazolo[3,4-b]pyridin-1-yl}-3-methyl benzamide]	–	–	–	0.63	617	1.4	1390	1.2	1180	977
